Here are results for 21 compounds from US7989446B2, “4-amino 5-cyanopyrimidine derivatives” (Otsuka Pharmaceutical Co., Ltd., priority 2004, dated 2011).

Assay [1] addresses T1, adenosine A2a receptor (Human) (Homo sapiens, UniProt P29274).
T1 construct: host or cells: HEK293
Nature of the assay: c-AMP generating action in cell expressing adenosine A2a receptor. The assay is classed as cell-based. As to conditions: HEK293 cell expressing human A2a; 100% = c-AMP caused by 1 μM CGS-21680; read-out: A2a Agonistic Action (EC50). How it is done: (1) c-AMP Generating Action in Cell Expressing Adenosine A2a Receptor
The test was carried out as mentioned below with reference to the method disclosed in the reference (Klotz k. N. et al., Naunyn-Schmiedeberg's Arch. Pharmacol., (1998) 357, 1-9; Shryock J. C. et al., Molecular Pharmacology, (1998) 53, 886-893).
As to the cell, HEK293 cell expressing adenosine A2a receptor (Human) (PerkinElmer Life Sciences, Code No. RBHA2AC) was used.
As to the culture medium, Dulbecco's modified Eagles medium (DMEM) including 10% FBS (Fetal bovine serum) and 1 mM of sodium pyruvate was used.
The cell was placed on 96 well plate (1×10^5/well), and cultured overnight. After removing off the supernatant, to each well, 0.1 ml of DMEM (without FBS) containing 20 mM HEPES, 0.1 mM of IBMX (3-isobutyl-1-methylxanthine) and 2 unit/mL adenosine deaminase was added, and they were incubated at 37° C. for 30 minutes. To each well, 0.1 ml of the culture medium including the DMSO solution of the test compound in an appropriate concentration was added and they were incubated for additional 30 minutes. After removing off the supernatant, the cytolytic solution was added to quench the reaction. The amount of c-AMP in each well was measured by using the c-AMP enzyme immunoassay (EIA) system (Amersham Biosciences, Code No. RPN225).
The same assay was repeated using CGS-21680 (2-p-carboxyethyl)phenethylamino-5′-N-ethylcarboxamidoadenosine hydrochloride, (Sigma, code C141) as reference compound. The amount of resultant c-AMP in the medium, caused by 1 μM of reference compound, was defined to be 100%. A concentration of assayed compound in the medium, producing 50% c-AMP amounts, was calculated to be EC50 value.

The subject of assay [2] is Intraocular Pressure in Rabbit. Kind of assay: Measuring test for intraocular pressure in rabbit. The format is in vivo, Female New Zealand white rabbits. As to conditions: 0.3% suspended ophthalmic preparation, test group, mean±standard error. How it is done:
(3) Measuring Test for Intraocular Pressure in Rabbit
The test compounds were dissolved in 10 mM of phosphate buffer (pH 7.5) (hereinafter, referred to as “vehicle of ophthalmic preparation”), and they were instilled in a given concentration. In addition, the compounds insoluble in that concentration was used as a suspension. Female New Zealand white rabbits (KITAYAMA LABES Co., Ltd.) whose weights were 2.0-4.0 kg were used.
The measurement of the intraocular pressure was carried out using Pneumatonometer (Model 30 Classic, Mentor company) without anesthesia. In addition, before the measurement of the intraocular pressure, the surface anesthesia with 0.4% oxybuprocaine hydrochloride (“Benoxil” 0.4% ophthalmic solution, Santen Pharmaceutical Co., Ltd.) was carried out.
The animals whose intraocular pressure was stable before instillation were selected, and these animals were divided to every 4 animal in each one group, 50 μL of eye drops including each the test compound was administered to one-sided eye and vehicle was administered to contralateral eye as the control eye. The measurement of intraocular pressure was carried out before instillation and after 0.5, 1, 2, 3, 4 and 6 hours from instillation. The effect on the intraocular pressure was shown as the difference from pre-instillation (ΔIOP, mmHg, mean±standard error). The following Tables 14 and 15 show the results of Control Compounds A and B used as 1% suspensions which are the same as in the pharmacological test (1).
The animals were pretreated as mentioned above, and among them animals whose intraocular pressure was stable before instillation were selected, and these animals were divided to every 5 to 8 animal in each one group. Every two group was used for each of the test compounds. The test compound was administered unilaterally to the eye of the test group rabbit and the intraocular pressure was measured. The vehicle was administered unilaterally to the eye of the control group rabbit and the intraocular pressure was measured. As mentioned above, the measurement of intraocular pressure was carried out before instillation and after 0.5, 1, 2, 3, 4 and 6 hours from instillation, and the effect on the intraocular pressure was shown as the difference from pre-instillation (ΔIOP, mmHg, mean±standard error).

Where a name gives a salt, the structure may show the parent alone.

T1 sequence (P29274 whole entry): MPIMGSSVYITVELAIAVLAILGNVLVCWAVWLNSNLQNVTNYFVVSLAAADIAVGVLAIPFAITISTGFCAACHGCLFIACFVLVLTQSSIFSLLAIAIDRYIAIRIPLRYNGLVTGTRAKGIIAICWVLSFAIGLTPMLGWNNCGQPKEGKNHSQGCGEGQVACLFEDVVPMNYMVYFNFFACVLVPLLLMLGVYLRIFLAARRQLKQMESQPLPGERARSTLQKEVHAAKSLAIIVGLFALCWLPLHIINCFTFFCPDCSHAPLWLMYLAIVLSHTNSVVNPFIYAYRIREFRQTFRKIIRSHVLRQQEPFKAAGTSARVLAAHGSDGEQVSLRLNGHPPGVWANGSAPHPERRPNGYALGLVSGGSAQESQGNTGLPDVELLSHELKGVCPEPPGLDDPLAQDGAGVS

Turning to `CC(=O)Nc1ccc(-c2nc(SCc3cccc(CCCCC(=O)N4CCN(C)CC4)n3)nc(N)c2C#N)cc1` [Example 54, N-[4-(6-amino-5-cyano-2-{6-[5-(4-methylpiperazin-1-yl)-5-oxopentyl]pyridin-2-ylmethyl-sulfanyl}pyrimidin-4-yl)phenyl]acetamide], the EC50 (commonly the concentration that produces a half-maximal response) in assay [1] was found to be 5.3 nM.

As to `CC(=O)Nc1ccc(-c2nc(SCc3cccc(C=CC(=O)N4CCN(C)CC4)n3)nc(N)c2C#N)cc1` [Example 48, N-[4-(6-amino-5-cyano-2-{6-[3-(4-methylpiperazin-1-yl)-3-oxopropenyl]pyridin-2-ylmethylsulfanyl}pyrimidin-4-yl)-phenyl]acetamide], the EC50 in assay [1] was 29.1 nM.

For the compound `CCNC(=O)[C@H]1O[C@@H](n2cnc3c(N)nc(NCCc4ccc(CCC(=O)O)cc4)nc32)[C@H](O)[C@@H]1O` [CGS-21680, (2-p-carboxyethyl)phenethylamino-5′-N-ethylcarboxamidoadenosine hydrochloride, reference compound], the “ΔIOP (mmHg)” value in assay [2] (0.5 hr) is given as −2.5 ± 0.4 mmHg; in assay [2] (1 hr) it was −6.3 ± 0.6 mmHg; in assay [2] (2 hr), −4.2 ± 0.4 mmHg; in assay [2] (3 hr), −3.5 ± 0.4 mmHg; in assay [2] (4 hr), −1.5 ± 0.7 mmHg; in assay [2] (6 hr) it was 0.3 ± 0.4 mmHg.

As to `CCN(CC)CCN1CCN(C(=O)CCCCc2cccc(CSc3nc(N)c(C#N)c(-c4ccc(NC(C)=O)cc4)n3)n2)CC1` [Example 55, N-{4-[6-amino-5-cyano-2-(6-{5-[4-(2-diethylaminoethyl)piperazin-1-yl]-5-oxopentyl}pyridin-2-ylmethylsulfanyl)pyrimidin-4-yl]phenyl}acetamide hydrochloride], the EC50 in assay [1] came to 5.5 nM.

As for `CCCC(=O)Nc1ccc(-c2nc(SCc3cccc(C)n3)nc(N)c2C#N)cc1` [Example 11, N-{4-[6-amino-5-cyano-2-(6-methylpyridin-2-ylmethylsulfanyl)pyrimidin-4-yl]phenyl}butylamide], the EC50 in assay [1] was 395 nM.

Regarding `CC(=O)Nc1ccc(-c2nc(SCc3cccc(C(=O)N4CCN(C(=O)OC(C)(C)C)CC4)n3)nc(N)c2C#N)cc1` [Example 28, t-butyl 4-{6-[4-(4-acetylaminophenyl)-6-amino-5-cyanopyrimidin-2-ylsulfanyl-methyl]pyridine-2-carbonyl}piperazine-1-carboxylate], the EC50 in assay [1] was 8.2 nM.

As for `CC(=O)Nc1ccc(-c2nc(SCc3ccc(C)cn3)nc(N)c2C#N)cc1` [Example 3, N-{4-[6-amino-5-cyano-2-(5-methylpyridin-2-ylmethylsulfanyl)pyrimidin-4-yl]phenyl}acetamide], the EC50 in assay [1] is 65.7 nM.

For the compound `CCC(=O)CCc1cccc(CSc2nc(N)c(C#N)c(-c3ccc(NC(C)=O)cc3)n2)n1` [Example 82, N-(4-{6-amino-5-cyano-2-[6-(3-oxopentyl)pyridin-2-ylmethylsulfanyl]pyrimidin-4-yl}phenyl)acetamide], the EC50 in assay [1] was 8.2 nM.

Turning to `CC(=O)Nc1ccc(-c2nc(SCc3cccc(CN4CCN(C(=O)c5ccccc5)CC4)n3)nc(N)c2C#N)cc1` [Example 19, N-(4-{6-amino-2-[6-(4-benzoylpiperazin-1-ylmethyl)pyridin-2-ylmethylsulfanyl]-5-cyanopyrimidin-4-yl}phenyl)acetamide], the EC50 in assay [1] amounted to 7.4 nM.

For `CCC(=O)Nc1ccc(-c2nc(SCc3cccc(CCC(=O)N4CCN(C)CC4)n3)nc(N)c2C#N)cc1` [Example 57, N-[4-(6-amino-5-cyano-2-{6-[3-(4-methylpiperazin-1-yl)-3-oxopropyl]pyridin-2-ylmethylsulfanyl}pyrimidin-4-yl)phenyl]propionamide], the EC50 in assay [1] is 3.4 nM.

For the compound `CC(=O)Nc1ccc(-c2nc(SCc3ccccn3)nc(N)c2C#N)cc1` [Example 1, N-{4-[6-amino-5-cyano-2-(pyridin-2-ylmethylsulfanyl)-pyrimidin-4-yl]phenyl}acetamide], the EC50 in assay [1] turned out to be 39.6 nM.

As for `CC(=O)Nc1ccc(-c2nc(SCc3cccc(CCC(=O)N4CCCCC4CO)n3)nc(N)c2C#N)cc1` (centres unmarked) [Example 70, N-[4-(6-amino-5-cyano-2-{6-[3-(2-hydroxymethylpiperidin-1-yl)-3-oxopropyl]pyridin-2-ylmethylsulfanyl}pyrimidin-4-yl)phenyl]acetamide hydrochloride], the EC50 in assay [1] is 8.8 nM.

As for `CC(=O)Nc1ccc(-c2nc(SCc3cccc(CNC(=O)CCCN4CCCC4)n3)nc(N)c2C#N)cc1` [Example 33, N-{6-[4-(4-acetylaminophenyl)-6-amino-5-cyanopyrimidin-2-ylsulfanylmethyl]pyridin-2-ylmethyl}-4-pyrrolidin-1-ylbutyl-amide], in assay [1], the EC50 was found to be 48 nM.

As to `Cc1cccc(CSc2nc(N)c(C#N)c(-c3ccc(N)cc3)n2)n1` [Example 8, 4-amino-6-(4-aminophenyl)-2-(6-methylpyridin-2-ylmethylsulfanyl)-pyrimidine-5-carbonitrile], in assay [1], the EC50 was determined as 34.8 nM.

Take `CCC(=O)Nc1ccc(-c2nc(SCc3cccc(C)n3)nc(N)c2C#N)cc1` [Example 9, N-{4-[6-amino-5-cyano-2-(6-methylpyridin-2-ylmethylsulfanyl)-pyrimidin-4-yl]phenyl}propionamide]: the EC50 in assay [1] worked out at 9 nM.

For the compound `CC(=O)Nc1ccc(-c2nc(SCc3cccc(C#CCCC(=O)N4CCN(C)CC4)n3)nc(N)c2C#N)cc1` [Example 52, N-[4-(6-amino-5-cyano-2-{6-[5-(4-methylpiperazin-1-yl)-5-oxopent-1-ynyl]pyridin-2-ylmethylsulfanyl}pyrimidin-4-yl)phenyl]acetamide], the EC50 in assay [1] was determined as 7 nM.

For `CC(=O)Nc1ccc(-c2nc(SCc3cccc(CN4CCN(C(=O)OC(C)(C)C)CC4)n3)nc(N)c2C#N)cc1` [Example 17, t-butyl 4-{6-[4-(4-acetylaminophenyl)-6-amino-5-cyanopyrimidin-2-ylsulfanyl-methyl]-pyridin-2-ylmethyl}piperazine-1-carboxylate], in assay [1], the EC50 came to 6.8 nM.

For the compound `CC(=O)Nc1ccc(-c2nc(SCc3cccc(C(=O)N4CCOCC4)n3)nc(N)c2C#N)cc1` [Example 26, N-(4-{6-amino-5-cyano-2-[6-(morpholin-4-carbonyl)pyridin-2-ylmethyl-sulfanyl]pyrimidin-4-yl}phenyl)acetamide hydrochloride salt], the EC50 in assay [1] amounted to 30.7 nM.

In the case of `C=CC(=O)Nc1ccc(-c2nc(SCc3cccc(C)n3)nc(N)c2C#N)cc1` [Example 10, N-{4-[6-amino-5-cyano-2-(6-methylpyridin-2-ylmethylsulfanyl)pyrimidin-4-yl]phenyl}acrylamide], the EC50 in assay [1] was 19.1 nM.

As for `CN1CCN(C(=O)CCc2cccc(CSc3nc(N)c(C#N)c(-c4ccc(N)cc4)n3)n2)CC1` [Example 56, 4-amino-6-(4-aminophenyl)-2-{6-[3-(4-methylpiperazin-1-yl)-3-oxopropyl]-pyridin-2-ylmethylsulfanyl}pyrimidin-5-carbonitrile], the EC50 in assay [1] was 5.1 nM.

Consider `CC(=O)Nc1ccc(-c2nc(SCc3cc(C)ccn3)nc(N)c2C#N)cc1` [Example 4, N-{4-[6-amino-5-cyano-2-(4-methylpyridin-2-ylmethylsulfanyl)pyrimidin-4-yl]phenyl}acetamide], for which the EC50 in assay [1] is 879 nM.
